Test results from patent publication US11445724B2, “Insecticidal compounds” (SYNGENTA PARTICIPATIONS AG, priority 2013, dated 2022).

Assays:
Format in all cases: in vivo
[1] = tested on: Myzus persicae (Green peach aphid); test: Myzus persicae (Green peach aphid) mortality, test compounds mixed with Sucrose solution under Parafilm; settings: 120 h, 12.5 ppm in Sucrose solution, infested pea seedlings on Parafilm, mortality 5 days after infestation
[2] = tested on: Thrips tabaci (Onion thrips); test: Thrips tabaci (Onion thrips) mortality, sprayed sunflower leaf discs; settings: foliar, 168 h, 200 ppm spray on sunflower leaf discs, mixed ages, mortality after 7 days
[3] = tested on: Spodoptera littoralis (Egyptian cotton leafworm); test: Spodoptera littoralis (Egyptian cotton leafworm) mortality, sprayed cotton leaf discs; settings: foliar, 72 h, 200 ppm spray on cotton leaf discs, L1 larvae, mortality 3 DAT
[4] = tested on: Plutella xylostella (Diamond back moth); test: Plutella xylostella (Diamond back moth) larval mortality, artificial diet in 24-well MTP; settings: 144 h, application rate 200 ppm (concentration in well 18 ppm), L2 larvae, larval mortality after 6 days
[5] = tested on: Tetranychus urticae (Two-spotted spider mite); test: Tetranychus urticae (Two-spotted spider mite) mortality, sprayed bean leaf discs; settings: foliar, 192 h, 200 ppm spray on bean leaf discs, mixed ages, egg, larval and adult mortality after 8 days
[6] = tested on: Myzus persicae (Green peach aphid); test: Myzus persicae (Green peach aphid) mortality, sprayed sunflower leaf discs; settings: foliar, 144 h, 200 ppm spray on sunflower leaf discs, mixed ages, mortality 6 DAT
[7] = tested on: Diabrotica balteata (Corn root worm); test: Diabrotica balteata (Corn root worm) larval mortality, artificial diet in 24-well MTP; settings: 120 h, application rate 200 ppm (concentration in well 18 ppm), L2 larvae, larval mortality after 5 days

COc1c(NC(=O)c2ccc([N+](=O)[O-])cc2)cccc1C(=O)Nc1c(Cl)cc(C(F)(C(F)(F)F)C(F)(F)F)cc1OC(F)F [Compound 81]
≥ 80%: pest or weed control at 12.5 ppm [1] | pest or weed control at 200 ppm [2] | pest or weed control at 200 ppm [3] | pest or weed control at 200 ppm [4] | pest or weed control at 200 ppm [5] | pest or weed control at 200 ppm [6] | pest or weed control at 200 ppm [7]

O=C(Nc1cccc(C(=O)Nc2c(Br)cc(C(F)(C(F)(F)F)C(F)(F)F)cc2OC(F)F)c1F)c1ccccc1F [Compound 83]
≥ 80%: pest or weed control at 12.5 ppm [1] | pest or weed control at 200 ppm [2] | pest or weed control at 200 ppm [3] | pest or weed control at 200 ppm [4] | pest or weed control at 200 ppm [5] | pest or weed control at 200 ppm [6] | pest or weed control at 200 ppm [7]

COc1c(NC(=O)c2ccc(F)cc2C)cccc1C(=O)Nc1c(Cl)cc(C(F)(C(F)(F)F)C(F)(F)F)cc1OC(F)F [Compound 84]
≥ 80%: pest or weed control at 12.5 ppm [1] | pest or weed control at 200 ppm [2] | pest or weed control at 200 ppm [3] | pest or weed control at 200 ppm [4] | pest or weed control at 200 ppm [5] | pest or weed control at 200 ppm [6] | pest or weed control at 200 ppm [7]

COc1c(NC(=O)c2ccc([N+](=O)[O-])cc2Cl)cccc1C(=O)Nc1c(Cl)cc(C(F)(C(F)(F)F)C(F)(F)F)cc1OC(F)F [Compound 86]
≥ 80%: pest or weed control at 12.5 ppm [1] | pest or weed control at 200 ppm [2] | pest or weed control at 200 ppm [3] | pest or weed control at 200 ppm [4] | pest or weed control at 200 ppm [5] | pest or weed control at 200 ppm [6] | pest or weed control at 200 ppm [7]

COc1c(NC(=O)c2ccc(C(F)(F)F)cc2)cccc1C(=O)Nc1c(Cl)cc(C(F)(C(F)(F)F)C(F)(F)F)cc1OC(F)F [Compound 89]
≥ 80%: pest or weed control at 12.5 ppm [1] | pest or weed control at 200 ppm [2] | pest or weed control at 200 ppm [3] | pest or weed control at 200 ppm [4] | pest or weed control at 200 ppm [5] | pest or weed control at 200 ppm [6] | pest or weed control at 200 ppm [7]

COc1c(NC(=O)c2ccc(F)cc2)cccc1C(=O)Nc1c(Cl)cc(C(F)(C(F)(F)F)C(F)(F)F)cc1OC(F)F [Compound 93]
≥ 80%: pest or weed control at 12.5 ppm [1] | pest or weed control at 200 ppm [2] | pest or weed control at 200 ppm [3] | pest or weed control at 200 ppm [4] | pest or weed control at 200 ppm [5] | pest or weed control at 200 ppm [6] | pest or weed control at 200 ppm [7]

COc1c(C(=O)C(C(C)=O)c2c(Br)cc(C(F)(C(F)(F)F)C(F)(F)F)cc2OC(F)F)cccc1N(C)C(=O)c1ccncc1 (centres unmarked) [Compound 99]
≥ 80%: pest or weed control at 12.5 ppm [1] | pest or weed control at 200 ppm [2] | pest or weed control at 200 ppm [3] | pest or weed control at 200 ppm [4] | pest or weed control at 200 ppm [5] | pest or weed control at 200 ppm [6] | pest or weed control at 200 ppm [7]

Cc1cc(C(F)(C(F)(F)F)C(F)(F)F)cc(OC(F)F)c1NC(=O)c1cccc(NC(=O)c2ccncc2)c1F [Compound 100]
≥ 80%: pest or weed control at 12.5 ppm [1] | pest or weed control at 200 ppm [2] | pest or weed control at 200 ppm [3] | pest or weed control at 200 ppm [4] | pest or weed control at 200 ppm [5] | pest or weed control at 200 ppm [6] | pest or weed control at 200 ppm [7]

CCN(C(=O)c1ccncc1)c1cccc(C(=O)Nc2c(C)cc(C(F)(C(F)(F)F)C(F)(F)F)cc2OC(F)F)c1F [Compound 101]
≥ 80%: pest or weed control at 12.5 ppm [1] | pest or weed control at 200 ppm [2] | pest or weed control at 200 ppm [3] | pest or weed control at 200 ppm [4] | pest or weed control at 200 ppm [5] | pest or weed control at 200 ppm [6] | pest or weed control at 200 ppm [7]

COc1c(C(=O)Nc2c(Br)cc(C(F)(C(F)(F)F)C(F)(F)F)cc2OC(F)F)cccc1N(C)C(=O)c1ccncc1 [Compound 102]
≥ 80%: pest or weed control at 12.5 ppm [1] | pest or weed control at 200 ppm [2] | pest or weed control at 200 ppm [3] | pest or weed control at 200 ppm [4] | pest or weed control at 200 ppm [5] | pest or weed control at 200 ppm [6] | pest or weed control at 200 ppm [7]

CCN(C(=O)c1ccc([N+](=O)[O-])cc1)c1cccc(C(=O)Nc2c(Br)cc(C(F)(C(F)(F)F)C(F)(F)F)cc2OC(F)F)c1F [Compound 103]
≥ 80%: pest or weed control at 12.5 ppm [1] | pest or weed control at 200 ppm [2] | pest or weed control at 200 ppm [3] | pest or weed control at 200 ppm [4] | pest or weed control at 200 ppm [5] | pest or weed control at 200 ppm [6] | pest or weed control at 200 ppm [7]

CCN(C(=O)c1cccc(F)c1F)c1cccc(C(=O)Nc2c(Br)cc(C(F)(C(F)(F)F)C(F)(F)F)cc2OC(F)F)c1F [Compound 108]
≥ 80%: pest or weed control at 12.5 ppm [1] | pest or weed control at 200 ppm [2] | pest or weed control at 200 ppm [3] | pest or weed control at 200 ppm [4] | pest or weed control at 200 ppm [5] | pest or weed control at 200 ppm [6] | pest or weed control at 200 ppm [7]

CCN(C(=O)c1ccc(F)cc1F)c1cccc(C(=O)Nc2c(Br)cc(C(F)(C(F)(F)F)C(F)(F)F)cc2OC(F)F)c1F [Compound 109]
≥ 80%: pest or weed control at 12.5 ppm [1] | pest or weed control at 200 ppm [2] | pest or weed control at 200 ppm [3] | pest or weed control at 200 ppm [4] | pest or weed control at 200 ppm [5] | pest or weed control at 200 ppm [6] | pest or weed control at 200 ppm [7]

CCN(C(=O)c1ccccc1)c1cccc(C(=O)Nc2c(Cl)cc(C(F)(C(F)(F)F)C(F)(F)F)cc2OC(F)F)c1F [Compound 119]
≥ 80%: pest or weed control at 12.5 ppm [1] | pest or weed control at 200 ppm [2] | pest or weed control at 200 ppm [3] | pest or weed control at 200 ppm [4] | pest or weed control at 200 ppm [5] | pest or weed control at 200 ppm [6] | pest or weed control at 200 ppm [7]

CCN(C(=O)c1ccc(F)cc1)c1cccc(C(=O)Nc2c(Cl)cc(C(F)(C(F)(F)F)C(F)(F)F)cc2OC(F)F)c1F [Compound 120]
≥ 80%: pest or weed control at 12.5 ppm [1] | pest or weed control at 200 ppm [2] | pest or weed control at 200 ppm [3] | pest or weed control at 200 ppm [4] | pest or weed control at 200 ppm [5] | pest or weed control at 200 ppm [6] | pest or weed control at 200 ppm [7]

CCN(C(=O)c1ccc(F)cc1Cl)c1cccc(C(=O)Nc2c(Cl)cc(C(F)(C(F)(F)F)C(F)(F)F)cc2OC(F)F)c1F [Compound 122]
≥ 80%: pest or weed control at 12.5 ppm [1] | pest or weed control at 200 ppm [2] | pest or weed control at 200 ppm [3] | pest or weed control at 200 ppm [4] | pest or weed control at 200 ppm [5] | pest or weed control at 200 ppm [6] | pest or weed control at 200 ppm [7]

CCN(C(=O)c1ccc(F)cc1)c1cccc(C(=O)Nc2c(Br)cc(C(F)(C(F)(F)F)C(F)(F)F)cc2OC(F)F)c1F [Compound 128]
≥ 80%: pest or weed control at 12.5 ppm [1] | pest or weed control at 200 ppm [2] | pest or weed control at 200 ppm [3] | pest or weed control at 200 ppm [4] | pest or weed control at 200 ppm [5] | pest or weed control at 200 ppm [6] | pest or weed control at 200 ppm [7]

CCN(C(=O)c1ccc([N+](=O)[O-])cc1Cl)c1cccc(C(=O)Nc2c(Br)cc(C(F)(C(F)(F)F)C(F)(F)F)cc2OC(F)F)c1OC [Compound 135]
≥ 80%: pest or weed control at 12.5 ppm [1] | pest or weed control at 200 ppm [2] | pest or weed control at 200 ppm [3] | pest or weed control at 200 ppm [4] | pest or weed control at 200 ppm [5] | pest or weed control at 200 ppm [6] | pest or weed control at 200 ppm [7]

CCN(C(=O)c1ccc(F)cc1)c1cccc(C(=O)Nc2c(Br)cc(C(F)(C(F)(F)F)C(F)(F)F)cc2OC(F)F)c1OC [Compound 139]
≥ 80%: pest or weed control at 12.5 ppm [1] | pest or weed control at 200 ppm [2] | pest or weed control at 200 ppm [3] | pest or weed control at 200 ppm [4] | pest or weed control at 200 ppm [5] | pest or weed control at 200 ppm [6] | pest or weed control at 200 ppm [7]

CCN(C(=O)c1ccc(F)cc1Cl)c1cccc(C(=O)Nc2c(Br)cc(C(F)(C(F)(F)F)C(F)(F)F)cc2OC(F)F)c1OC [Compound 141]
≥ 80%: pest or weed control at 12.5 ppm [1] | pest or weed control at 200 ppm [2] | pest or weed control at 200 ppm [3] | pest or weed control at 200 ppm [4] | pest or weed control at 200 ppm [5] | pest or weed control at 200 ppm [6] | pest or weed control at 200 ppm [7]

CCN(C(=O)c1ccc(F)cc1)c1cccc(C(=O)Nc2c(Cl)cc(C(F)(C(F)(F)F)C(F)(F)F)cc2OC(F)F)c1OC [Compound 156]
≥ 80%: pest or weed control at 12.5 ppm [1] | pest or weed control at 200 ppm [2] | pest or weed control at 200 ppm [3] | pest or weed control at 200 ppm [4] | pest or weed control at 200 ppm [5] | pest or weed control at 200 ppm [6] | pest or weed control at 200 ppm [7]

CCN(C(=O)c1ccc(F)cc1Cl)c1cccc(C(=O)Nc2c(Cl)cc(C(F)(C(F)(F)F)C(F)(F)F)cc2OC(F)F)c1OC [Compound 158]
≥ 80%: pest or weed control at 12.5 ppm [1] | pest or weed control at 200 ppm [2] | pest or weed control at 200 ppm [3] | pest or weed control at 200 ppm [4] | pest or weed control at 200 ppm [5] | pest or weed control at 200 ppm [6] | pest or weed control at 200 ppm [7]

CCN(C(=O)c1ccc([N+](=O)[O-])cc1)c1cccc(C(=O)Nc2c(Br)cc(C(F)(C(F)(F)F)C(F)(F)F)cc2OC(F)F)c1OC [Compound 162]
≥ 80%: pest or weed control at 12.5 ppm [1] | pest or weed control at 200 ppm [2] | pest or weed control at 200 ppm [3] | pest or weed control at 200 ppm [4] | pest or weed control at 200 ppm [5] | pest or weed control at 200 ppm [6] | pest or weed control at 200 ppm [7]
